Columns and labels:
[1] = tested on: retina (rat); experiment: Retinal peroxidation induced by intravitreous injection of ferrous sulfate in rats, retinal TBA values (Experiment 1 (B-1)); type: in vivo, SD rats; conditions: 1.5% suspension, 30 mg/kg oral
Method: (B) In vivo experiment in rats by intravitreous injection of ferrous ion:
(B-1) Evaluation by retinal TBA values
Antioxidative effects of oral administration of a suspension of 2-O-octadecylascorbic acid (30 mg/kg) on the retinal peroxidation induced by intravitreous injection of ferrous sulfate in rats were examined.
Seven weeks old SD rats fasted from the previous day were divided into 2 groups. A 5% solution of gum arabic (control)(2 ml/kg) was administered orally to one group in 3 divided portions. A 1.5% suspension (2 ml/kg) of 2-O-octadecylascorbic acid (30 mg/kg) was administered orally to the other group in 3 divided portions. Two hours after the first administration, rats were anesthetized systemically with ketamine hydrochloride. A 5 mM solution (5 μl) of ferrous sulfate was injected intravitreously into each of the left eyes, and physiological saline (5 μl) was injected intravitreously into each of the right eyes. Each injection was carried out using a microsyringe. One and four hours after the injection, a suspension of 2-O-octadecylascorbic acid or a 5% solution of gum arabic were administered again. Two hours after the third administration (i.e. six hours after the injection of ferrous ion), the rats were sacrificed. The eyeballs were removed, retinal homogenates were prepared from the eyes, and the TBA values and protein were determined.

[2] = tested on: bovine retinal homogenates; experiment: Peroxidation of bovine retinal homogenate by light exposure in presence of hematoporphyrin, TBA value (Experiment 2 (A)); type: biochemical; conditions: 10^-4 M
Method: (A) In vitro experiment using bovine retinal homogenates
Antioxidative effects of 2-O-octadecylascorbic acid on peroxidation caused by light exposure of bovine retinal homogenates in the presence of hematoporphyrin (hereinafter referred to as HPP) were examined.
(1) HPP (100 μM, dissolved in ethanol), 2-O-octadecylascorbic acid (10^-4 M) and water were added to a retinal homogenate prepared by the same manner as that of the above Experiment 1 (A) Method (1). The mixture was irradiated with a fluorescent lamp (daylight lamp, 15 W, 3000 lux) from 20 cm above for 1 hour. The final concentration of ethanol in the reaction mixture was adjusted to 2%.
(2) One hour after the light exposure, according to the same manner as that of the above Experiment 1 (A) Method (3), lipidperoxides were determined by the TBA reaction and proteins were determined using Bio-Rad Protein Assay Kit (trade name).

[3] = tested on: retina (ERG in rats); experiment: ERG in rats after light exposure for 3 days (Experiment 2 (B-2), Method 1); type: in vivo; conditions: 5.0% suspension, oral 200 mg/kg/day on day of light exposure, 100 mg/kg/day other days; light 3 days
Method: FIG. 4 is a graph showing the b-wave amplitude of ERG in rats after light exposure for 3 days in Experiment 2 (B-2)(Method 1). The abscissa indicates time (day) after light exposure and the ordinate indicates b-wave amplitude (mv).
(B-2) Evaluation by ERG determination
Rats were subjected to dark adaptation for 24 hours. Continuous light exposure for 20 hours was repeated for 3 successive days using a green fluorescent lamp (490-580 nm), the illumination intensity of which was adjusted to 600 to 700 lux. ERG was measured for 3 successive days after dark adaptation for 2 hours after completion of everyday light exposure. After that, the rats were reared in a dark room, and ERG was measured on the 7th day after the light exposure, and evaluated for the amplitude of a-wave and b-wave and the latency of a-wave. From the day before the light exposure, a 5.0% 2-O-octadecylascorbic acid suspension or 5.0% gum arabic solution (control) was orally administered twice a day (200 mg/kg/day) on the day of the light exposure and once a day (100 mg/kg/day) on other days.

[4] = tested on: retina (ERG in rats); experiment: ERG in rats after light exposure for 20 hours (Experiment 2 (B-2), Method 2); type: in vivo; conditions: 5.0% suspension, light 20 hours
Method: FIG. 5 is a graph showing the a-wave latency of ERG in rats after light exposure for 20 hours in Experiment 2 (B-2)(Method 2). The abscissa indicates time (day) after light exposure and the ordinate indicates a-wave latency (msec).
(B-2) Evaluation of ERG determination
Rats were subjected to dark adaptation for 12 hours and irradiated with light for 20 successive hours under the same conditions as those of (Method-1). After subjecting them to dark adaptation for 2 hours, ERG was determined. A 5.0% 2-O-octadecylascorbic acid suspension or 5.0% gum arabic solution (control) was orally administered once a day (100 mg/kg/day) from 7 days before the light exposure and twice a day (200 mg/kg/day) only on the day of the light exposure.

[5] = tested on: mice; experiment: Acute toxicity test in mice (Experiment 3); type: in vivo
Method: Acute toxicity test of 2-O-octadecylascorbic acid
2-O-octadecylascorbic acid was tested for the acute toxicity test in mice. As a result, no mouse died even in oral administration of 1000 mg/kg. This compound has therefore low toxicity.

## CCCCCCCCCCCCCCCCCCOC1=C(O)[C@@H]([C@@H](O)CO)OC1=O [2-O-octadecylascorbic acid]
[1]
  increase in the TBA value of the retina induced by intravitreous injection of ferrous ion: significantly inhibited the increase in the TBA value of the retina
[1]; left eye (ferrous sulfate injected), mean ± S.D., n=6, p < 0.01 vs control
  Retina: TBA value, left eye: 0.47 ± 0.11 nM malondialdehyde/mg protein
[1]; right eye (physiological saline injected), mean ± S.D., n=6
  Retina: TBA value, right eye: 0.36 ± 0.06 nM malondialdehyde/mg protein
[2]
  inhibitory effect on light-induced peroxidation: significant inhibitory effect was observed
[2]; HPP 100 μM, light 3000 lux 1 hour, mean ± S.D., n=3, p < 0.001 vs control
  Retina: TBA value: 1.31 ± 0.21 nM malondialdehyde/mg protein
[3]
  decrease of the b-wave amplitude: the tendency to inhibit the decrease of the b-wave amplitude was observed
[4]; oral 100 mg/kg/day from 7 days before, 200 mg/kg/day on day of light exposure
  delay of the a-wave latency: significantly inhibited the delay of the a-wave latency
[4]; both groups
  amplitude of a-wave and b-wave: decreased in both groups
[5]; acute toxicity, mice, oral
  toxicity: low toxicity
[5]; mouse, in vivo, po, 1000 mg/kg
  mortality: no mouse died

From patent US5665769A, “Pharmaceutical composition for preventing and treating retinal diseases” (Senju Pharmaceuticals Co., Ltd., priority 1993, dated 1997)
